Assay results from ChEMBL document CHEMBL4507261, “Data for DCP probe A-192621” (2021).

Tests used:
[1] = target: Casein kinase I isoform gamma-1 (Homo sapiens) (UniProt Q9HCP0); conditions: Compound concentration 1000.0 nM
[2] = target: Serine/threonine-protein kinase SIK3 (Homo sapiens) (UniProt Q9Y2K2); conditions: Compound concentration 1000.0 nM
[3] = tested on: Epidermal growth factor receptor (Homo sapiens), P00533 [L858R]; conditions: Compound concentration 1000.0 nM
[4] = target: Serine/threonine-protein kinase BRSK2 (Homo sapiens) (UniProt Q8IWQ3); conditions: Compound concentration 1000.0 nM
Sequence of Serine/threonine-protein kinase BRSK2 (Homo sapiens) (Q8IWQ3 whole entry): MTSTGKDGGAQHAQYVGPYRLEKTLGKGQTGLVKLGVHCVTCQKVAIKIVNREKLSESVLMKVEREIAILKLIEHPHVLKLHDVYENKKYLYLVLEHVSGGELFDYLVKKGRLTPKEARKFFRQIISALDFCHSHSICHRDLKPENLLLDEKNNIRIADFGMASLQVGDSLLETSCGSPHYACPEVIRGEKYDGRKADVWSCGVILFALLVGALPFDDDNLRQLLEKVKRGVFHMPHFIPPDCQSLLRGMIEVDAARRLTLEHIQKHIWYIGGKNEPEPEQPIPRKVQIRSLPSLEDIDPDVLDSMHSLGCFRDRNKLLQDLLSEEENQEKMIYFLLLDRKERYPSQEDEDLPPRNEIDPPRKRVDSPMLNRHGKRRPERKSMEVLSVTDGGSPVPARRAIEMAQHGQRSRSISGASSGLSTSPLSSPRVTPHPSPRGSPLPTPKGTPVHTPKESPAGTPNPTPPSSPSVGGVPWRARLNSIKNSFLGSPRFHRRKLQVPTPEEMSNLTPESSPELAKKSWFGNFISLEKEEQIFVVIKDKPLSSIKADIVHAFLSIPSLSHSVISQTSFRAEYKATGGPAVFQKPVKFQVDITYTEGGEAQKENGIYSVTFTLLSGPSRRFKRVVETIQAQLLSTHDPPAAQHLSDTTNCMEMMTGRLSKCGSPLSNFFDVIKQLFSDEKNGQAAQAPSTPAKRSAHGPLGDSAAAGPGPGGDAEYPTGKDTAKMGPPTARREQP

[5] = target: Dual specificity protein kinase CLK1 (Homo sapiens) (UniProt P49759); conditions: Compound concentration 1000.0 nM
Sequence of Dual specificity protein kinase CLK1 (Homo sapiens) (P49759 whole entry, looked up): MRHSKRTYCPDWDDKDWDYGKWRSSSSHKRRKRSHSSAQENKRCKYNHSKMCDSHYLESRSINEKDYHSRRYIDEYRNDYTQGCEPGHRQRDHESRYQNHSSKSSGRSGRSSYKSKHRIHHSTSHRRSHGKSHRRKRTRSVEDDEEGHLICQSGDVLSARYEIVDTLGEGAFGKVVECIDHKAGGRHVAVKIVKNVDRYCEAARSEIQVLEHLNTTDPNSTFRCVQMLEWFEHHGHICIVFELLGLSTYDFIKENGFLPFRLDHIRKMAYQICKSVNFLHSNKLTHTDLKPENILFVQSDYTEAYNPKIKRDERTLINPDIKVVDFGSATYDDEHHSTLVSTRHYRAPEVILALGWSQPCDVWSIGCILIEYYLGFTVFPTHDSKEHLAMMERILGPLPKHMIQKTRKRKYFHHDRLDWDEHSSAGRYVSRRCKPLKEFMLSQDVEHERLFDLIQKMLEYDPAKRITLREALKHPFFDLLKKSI

[6] = tested on: Receptor-type tyrosine-protein kinase FLT3 (Homo sapiens), P36888 [UNDEFINED MUTATION]; conditions: Compound concentration 1000.0 nM
[7] = target: Serine/threonine-protein kinase pim-1 (Homo sapiens) (UniProt P11309); conditions: Compound concentration 1000.0 nM
[8] = target: Phosphatidylinositol 4-phosphate 5-kinase type-1 gamma (Homo sapiens) (UniProt O60331); conditions: Compound concentration 1000.0 nM
[9] = target: Tyrosine-protein kinase JAK3 (Homo sapiens) (UniProt P52333); conditions: Compound concentration 1000.0 nM
[10] = target: Dual specificity mitogen-activated protein kinase kinase 2 (Homo sapiens) (UniProt P36507); conditions: Compound concentration 1000.0 nM
Sequence of Dual specificity mitogen-activated protein kinase kinase 2 (Homo sapiens) (P36507 whole entry): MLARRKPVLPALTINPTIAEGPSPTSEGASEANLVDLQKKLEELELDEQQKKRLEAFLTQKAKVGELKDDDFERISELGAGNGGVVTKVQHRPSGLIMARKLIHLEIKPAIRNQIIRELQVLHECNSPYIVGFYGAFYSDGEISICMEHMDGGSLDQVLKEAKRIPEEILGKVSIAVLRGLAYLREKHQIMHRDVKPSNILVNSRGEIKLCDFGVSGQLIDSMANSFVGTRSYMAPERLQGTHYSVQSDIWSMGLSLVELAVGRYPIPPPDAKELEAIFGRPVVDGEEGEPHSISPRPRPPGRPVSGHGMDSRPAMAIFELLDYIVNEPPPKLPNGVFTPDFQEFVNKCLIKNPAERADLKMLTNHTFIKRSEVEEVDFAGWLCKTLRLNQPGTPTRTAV

[11] = target: Serine/threonine-protein kinase VRK2 (Homo sapiens) (UniProt Q86Y07); conditions: Compound concentration 1000.0 nM
[12] = target: Atypical kinase COQ8B, mitochondrial (Homo sapiens) (UniProt Q96D53); conditions: Compound concentration 1000.0 nM
[13] = target: Mitogen-activated protein kinase kinase kinase 1 (Homo sapiens) (UniProt Q13233); conditions: Compound concentration 1000.0 nM
[14] = target: Serine/threonine-protein kinase 32C (Homo sapiens) (UniProt Q86UX6); conditions: Compound concentration 1000.0 nM
[15] = tested on: Mast/stem cell growth factor receptor Kit (Homo sapiens), P10721 [V559D,T670I]; conditions: Compound concentration 1000.0 nM
[16] = target: Receptor tyrosine-protein kinase erbB-3 (Homo sapiens) (UniProt P21860); conditions: Compound concentration 1000.0 nM
[17] = target: MAP/microtubule affinity-regulating kinase 4 (Homo sapiens) (UniProt Q96L34); conditions: Compound concentration 1000.0 nM
[18] = target: Megakaryocyte-associated tyrosine-protein kinase (Homo sapiens) (UniProt P42679); conditions: Compound concentration 1000.0 nM
[19] = target: Cyclin-dependent kinase 2 (Homo sapiens) (UniProt P24941); conditions: Compound concentration 1000.0 nM
[20] = target: Mitogen-activated protein kinase kinase kinase 3 (Homo sapiens) (UniProt Q99759); conditions: Compound concentration 1000.0 nM
Sequence of Mitogen-activated protein kinase kinase kinase 3 (Homo sapiens) (Q99759 whole entry): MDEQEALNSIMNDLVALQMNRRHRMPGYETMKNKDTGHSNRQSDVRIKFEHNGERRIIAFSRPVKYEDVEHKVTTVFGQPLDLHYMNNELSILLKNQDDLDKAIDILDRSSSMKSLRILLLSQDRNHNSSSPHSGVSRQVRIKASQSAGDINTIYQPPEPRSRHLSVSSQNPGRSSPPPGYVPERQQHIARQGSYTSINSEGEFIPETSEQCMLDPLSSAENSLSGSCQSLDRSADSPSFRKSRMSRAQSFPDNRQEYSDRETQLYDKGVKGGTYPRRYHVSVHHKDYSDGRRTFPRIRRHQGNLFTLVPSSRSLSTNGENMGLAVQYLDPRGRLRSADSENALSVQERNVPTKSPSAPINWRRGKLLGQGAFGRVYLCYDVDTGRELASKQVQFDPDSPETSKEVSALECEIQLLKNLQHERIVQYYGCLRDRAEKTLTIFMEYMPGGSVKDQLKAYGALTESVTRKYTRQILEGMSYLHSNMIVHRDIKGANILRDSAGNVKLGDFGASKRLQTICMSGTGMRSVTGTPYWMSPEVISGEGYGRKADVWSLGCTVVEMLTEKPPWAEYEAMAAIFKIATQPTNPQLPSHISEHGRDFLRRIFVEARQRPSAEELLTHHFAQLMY

[21] = target: Muscle, skeletal receptor tyrosine-protein kinase (Homo sapiens) (UniProt O15146); conditions: Compound concentration 1000.0 nM
Sequence of Muscle, skeletal receptor tyrosine-protein kinase (Homo sapiens) (O15146 whole entry): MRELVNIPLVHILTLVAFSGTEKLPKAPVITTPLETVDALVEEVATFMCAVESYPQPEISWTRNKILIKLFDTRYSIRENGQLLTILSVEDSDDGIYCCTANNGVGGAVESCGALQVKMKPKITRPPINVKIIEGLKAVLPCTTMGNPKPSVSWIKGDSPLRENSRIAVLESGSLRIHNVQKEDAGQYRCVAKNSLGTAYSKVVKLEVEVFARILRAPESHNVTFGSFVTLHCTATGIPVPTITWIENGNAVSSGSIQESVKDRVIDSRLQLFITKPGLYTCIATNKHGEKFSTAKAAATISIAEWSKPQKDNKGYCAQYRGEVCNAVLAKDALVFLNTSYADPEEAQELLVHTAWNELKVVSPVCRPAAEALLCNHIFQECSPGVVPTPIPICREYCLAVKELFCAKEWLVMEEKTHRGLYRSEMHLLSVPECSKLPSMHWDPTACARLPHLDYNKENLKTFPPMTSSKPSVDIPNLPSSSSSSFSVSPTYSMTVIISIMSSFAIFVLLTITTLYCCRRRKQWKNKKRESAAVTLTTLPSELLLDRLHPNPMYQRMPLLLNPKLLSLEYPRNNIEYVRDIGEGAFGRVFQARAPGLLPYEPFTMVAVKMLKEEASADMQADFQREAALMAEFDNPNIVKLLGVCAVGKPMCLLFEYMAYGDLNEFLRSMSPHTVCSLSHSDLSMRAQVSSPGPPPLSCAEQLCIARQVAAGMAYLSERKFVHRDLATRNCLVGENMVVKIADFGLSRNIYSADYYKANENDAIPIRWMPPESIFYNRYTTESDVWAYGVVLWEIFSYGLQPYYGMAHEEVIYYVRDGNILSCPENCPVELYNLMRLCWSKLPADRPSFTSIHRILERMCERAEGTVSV

[22] = target: Tyrosine-protein kinase receptor Tie-1 (Homo sapiens) (UniProt P35590); conditions: Compound concentration 1000.0 nM
[23] = target: 3-phosphoinositide-dependent protein kinase 1 (Homo sapiens) (UniProt O15530); conditions: Compound concentration 1000.0 nM
[24] = target: Ribosomal protein S6 kinase alpha-4 (Homo sapiens) (UniProt O75676); conditions: Compound concentration 1000.0 nM
[25] = tested on: Phosphatidylinositol 4,5-bisphosphate 3-kinase catalytic subunit alpha isoform (Homo sapiens), P42336 [H1047L]; conditions: Compound concentration 1000.0 nM
[26] = tested on: Phosphatidylinositol 4,5-bisphosphate 3-kinase catalytic subunit alpha isoform (Homo sapiens), P42336 [Q546K]; conditions: Compound concentration 1000.0 nM
[27] = target: Serine/threonine-protein kinase MARK1 (Homo sapiens) (UniProt Q9P0L2); conditions: Compound concentration 1000.0 nM
[28] = target: NT-3 growth factor receptor (Homo sapiens) (UniProt Q16288); conditions: Compound concentration 1000.0 nM
[29] = target: Sodium-dependent serotonin transporter (Homo sapiens) (UniProt P31645); assay: 5-HT transporter (h) Eurofins-Cerep binding assay; parameters: ligand concentration 2 nM; conditions: filed as antagonist, Compound concentration 10.0 uM
[30] = target: Calcium/calmodulin-dependent protein kinase type 1G (Homo sapiens) (UniProt Q96NX5); conditions: Compound concentration 1000.0 nM
[31] = tested on: Mast/stem cell growth factor receptor Kit (Homo sapiens), P10721 [D816V]; conditions: Compound concentration 1000.0 nM
[32] = target: Mitogen-activated protein kinase kinase kinase kinase 1 (Homo sapiens) (UniProt Q92918); conditions: Compound concentration 1000.0 nM
[33] = target: Myosin-IIIb (Homo sapiens) (UniProt Q8WXR4); conditions: Compound concentration 1000.0 nM
[34] = target: Mu-type opioid receptor (Homo sapiens) (UniProt P35372); assay: mu (MOP) (h) Eurofins-Cerep binding assay; conditions: filed as agonist, Compound concentration 10.0 uM
[35] = target: Tyrosine-protein kinase Fgr (Homo sapiens) (UniProt P09769); conditions: Compound concentration 1000.0 nM
[36] = target: Cholecystokinin receptor type A (Homo sapiens) (UniProt P32238); assay: CCK1 (CCKA) (h) Eurofins-Cerep binding assay; parameters: ligand concentration 0.08 nM; conditions: filed as agonist, Compound concentration 10.0 uM
Sequence of Cholecystokinin receptor type A (Homo sapiens) (P32238 whole entry): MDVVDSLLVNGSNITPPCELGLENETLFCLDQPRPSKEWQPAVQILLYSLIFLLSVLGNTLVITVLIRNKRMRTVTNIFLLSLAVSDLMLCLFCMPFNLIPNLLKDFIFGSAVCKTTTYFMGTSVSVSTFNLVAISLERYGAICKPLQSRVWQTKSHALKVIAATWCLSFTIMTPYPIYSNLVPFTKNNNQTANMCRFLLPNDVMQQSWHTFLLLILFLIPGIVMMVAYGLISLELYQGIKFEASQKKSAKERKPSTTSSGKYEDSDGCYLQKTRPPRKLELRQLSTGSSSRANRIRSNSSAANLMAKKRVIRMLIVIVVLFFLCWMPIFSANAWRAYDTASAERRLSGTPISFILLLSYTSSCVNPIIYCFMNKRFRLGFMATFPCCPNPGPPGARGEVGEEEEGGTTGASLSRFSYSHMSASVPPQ

[37] = target: Tyrosine-protein kinase Blk (Homo sapiens) (UniProt P51451); conditions: Compound concentration 1000.0 nM
[38] = target: Serine/threonine-protein kinase TAO2 (Homo sapiens) (UniProt Q9UL54); conditions: Compound concentration 1000.0 nM
[39] = target: Cyclin-dependent kinase-like 5 (Homo sapiens) (UniProt O76039); conditions: Compound concentration 1000.0 nM
[40] = target: Prostaglandin E2 receptor EP2 subtype (Homo sapiens) (UniProt P43116); assay: EP2 (h) Eurofins-Cerep binding assay; parameters: ligand concentration 3 nM; conditions: filed as agonist, Compound concentration 10.0 uM
[41] = target: Serine/threonine-protein kinase tousled-like 2 (Homo sapiens) (UniProt Q86UE8); conditions: Compound concentration 1000.0 nM
[42] = target: Mitogen-activated protein kinase kinase kinase kinase 3 (Homo sapiens) (UniProt Q8IVH8); conditions: Compound concentration 1000.0 nM
[43] = target: Fibroblast growth factor receptor 1 (Homo sapiens) (UniProt P11362); conditions: Compound concentration 1000.0 nM
[44] = tested on: Phosphatidylinositol 4,5-bisphosphate 3-kinase catalytic subunit alpha isoform (Homo sapiens), P42336 [E545A]; conditions: Compound concentration 1000.0 nM
Sequence of Phosphatidylinositol 4,5-bisphosphate 3-kinase catalytic subunit alpha isoform (Homo sapiens), P42336 [E545A] (P42336 whole entry E545A, canonical isoform): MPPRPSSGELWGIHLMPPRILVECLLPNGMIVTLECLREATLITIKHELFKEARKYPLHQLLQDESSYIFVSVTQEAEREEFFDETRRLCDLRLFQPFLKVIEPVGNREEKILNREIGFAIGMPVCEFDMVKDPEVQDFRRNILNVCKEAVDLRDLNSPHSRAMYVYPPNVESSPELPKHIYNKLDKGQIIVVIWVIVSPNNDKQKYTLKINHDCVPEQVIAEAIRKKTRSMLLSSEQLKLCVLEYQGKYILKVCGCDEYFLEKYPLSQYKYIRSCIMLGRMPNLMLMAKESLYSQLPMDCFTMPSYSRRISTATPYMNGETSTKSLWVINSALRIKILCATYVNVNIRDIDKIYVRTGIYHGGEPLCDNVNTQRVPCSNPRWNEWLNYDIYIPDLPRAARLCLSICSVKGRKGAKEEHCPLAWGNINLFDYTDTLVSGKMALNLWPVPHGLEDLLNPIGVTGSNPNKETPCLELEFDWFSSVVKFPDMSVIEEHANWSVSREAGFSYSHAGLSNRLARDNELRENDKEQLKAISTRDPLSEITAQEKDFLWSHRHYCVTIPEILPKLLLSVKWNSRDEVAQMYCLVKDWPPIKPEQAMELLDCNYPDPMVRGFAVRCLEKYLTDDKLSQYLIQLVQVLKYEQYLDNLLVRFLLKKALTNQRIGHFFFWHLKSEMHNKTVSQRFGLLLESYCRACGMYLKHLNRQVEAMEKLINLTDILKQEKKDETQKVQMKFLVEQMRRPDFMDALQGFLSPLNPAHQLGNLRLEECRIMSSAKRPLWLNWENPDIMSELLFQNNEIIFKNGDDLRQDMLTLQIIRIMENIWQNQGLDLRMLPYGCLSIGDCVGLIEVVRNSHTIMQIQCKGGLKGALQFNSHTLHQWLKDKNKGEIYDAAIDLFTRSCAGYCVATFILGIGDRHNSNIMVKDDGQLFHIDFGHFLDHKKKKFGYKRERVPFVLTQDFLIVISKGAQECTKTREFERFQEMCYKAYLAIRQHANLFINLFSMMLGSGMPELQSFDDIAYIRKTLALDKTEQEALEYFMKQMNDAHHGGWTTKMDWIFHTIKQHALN

Sequence of Casein kinase I isoform gamma-1 (Homo sapiens) (Q9HCP0 whole entry, looked up, canonical isoform): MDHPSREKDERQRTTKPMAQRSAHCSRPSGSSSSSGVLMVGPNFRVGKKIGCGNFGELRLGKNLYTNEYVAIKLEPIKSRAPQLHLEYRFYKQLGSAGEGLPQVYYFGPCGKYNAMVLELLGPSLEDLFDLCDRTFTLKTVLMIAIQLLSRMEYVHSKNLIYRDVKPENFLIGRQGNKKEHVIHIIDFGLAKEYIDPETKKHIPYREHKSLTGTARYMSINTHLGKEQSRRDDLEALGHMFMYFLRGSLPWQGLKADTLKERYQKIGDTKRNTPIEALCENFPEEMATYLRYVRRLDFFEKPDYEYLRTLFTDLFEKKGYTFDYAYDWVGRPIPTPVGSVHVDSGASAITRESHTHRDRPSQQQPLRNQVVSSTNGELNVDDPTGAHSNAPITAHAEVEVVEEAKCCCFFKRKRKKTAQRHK

SMILES: CCCOc1ccc([C@@H]2[C@@H](C(=O)O)[C@H](c3ccc4c(c3)OCO4)CN2CC(=O)Nc2c(CC)cccc2CC)cc1 [A-1806262]
- residual activity [1]: 97%
- residual activity [2]: 89%
- residual activity [3]: 87%
- residual activity [4]: 100%
- residual activity [5]: 93%
- residual activity [6]: 63%
- residual activity [7]: 89%
- residual activity [8]: 100%
- residual activity [9]: 73%
- residual activity [10]: 89%
- residual activity [11]: 59%
- residual activity [12]: 89%
- residual activity [13]: 80%
- residual activity [14]: 100%
- residual activity [15]: 100%
- residual activity [16]: 84%
- residual activity [17]: 100%
- residual activity [18]: 90%
- residual activity [19]: 87%
- residual activity [20]: 85%
- residual activity [21]: 97%
- residual activity [22]: 96%
- residual activity [23]: 100%
- residual activity [24]: 97%
- residual activity [25]: 83%
- residual activity [26]: 80%
- residual activity [27]: 100%
- residual activity [28]: 91%
- % Inhibition of Control Specific Binding (Mean n=2) [29]: 5.2%
- residual activity [30]: 89%
- residual activity [31]: 99%
- residual activity [32]: 92%
- residual activity [33]: 52%
- % Inhibition of Control Specific Binding (Mean n=2) [34]: 11.1%
- residual activity [35]: 93%
- % Inhibition of Control Specific Binding (Mean n=2) [36]: 75.9%
- residual activity [37]: 96%
- residual activity [38]: 91%
- residual activity [39]: 83%
- % Inhibition of Control Specific Binding (Mean n=2) [40]: 10.7%
- residual activity [41]: 100%
- residual activity [42]: 100%
- residual activity [43]: 100%
- residual activity [44]: 92%

SMILES: CCCOc1ccc([C@H]2[C@H](C(=O)O)[C@@H](c3ccc4c(c3)OCO4)CN2CC(=O)Nc2c(CC)cccc2CC)cc1 [A-192621]
- residual activity [1]: 100%
- residual activity [2]: 71%
- residual activity [3]: 100%
- residual activity [4]: 97%
- residual activity [5]: 87%
- residual activity [6]: 13%
- residual activity [7]: 85%
- residual activity [8]: 100%
- residual activity [9]: 84%
- residual activity [10]: 62%
- residual activity [11]: 61%
- residual activity [12]: 90%
- residual activity [13]: 71%
- residual activity [14]: 100%
- residual activity [15]: 87%
- residual activity [16]: 78%
- residual activity [17]: 97%
- residual activity [18]: 83%
- residual activity [19]: 87%
- residual activity [20]: 74%
- residual activity [21]: 82%
- residual activity [22]: 94%
- residual activity [23]: 100%
- residual activity [24]: 84%
- residual activity [25]: 85%
- residual activity [26]: 69%
- residual activity [27]: 100%
- residual activity [28]: 71%
- % Inhibition of Control Specific Binding (Mean n=2) [29]: -7.7%
- residual activity [30]: 90%
- residual activity [31]: 92%
- residual activity [32]: 92%
- residual activity [33]: 66%
- % Inhibition of Control Specific Binding (Mean n=2) [34]: 8.3%
- residual activity [35]: 98%
- % Inhibition of Control Specific Binding (Mean n=2) [36]: 63.1%
- residual activity [37]: 88%
- residual activity [38]: 74%
- residual activity [39]: 85%
- % Inhibition of Control Specific Binding (Mean n=2) [40]: 10.1%
- residual activity [41]: 94%
- residual activity [42]: 85%
- residual activity [43]: 100%
- residual activity [44]: 92%
